Measured values from ChEMBL document CHEMBL1201862, “PubChem BioAssay data set” (2004).
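Exposure lasted 48 hours, with cells grown in 96-well plates and compounds tested at five concentrations. At the GI50, growth is halved.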 The source made the active and inactive calls. No stated cut-off is given here; in the data, active = GI50 up to about 1.1 µM and inactive = higher.

How the values were obtained:
Assay in all cases: inhibition of tumour cell growth, NCI panel, 48 h
HOP-62 = test system: HOP-62
HL-60 = test system: HL-60
CCRF-CEM = test system: CCRF-CEM
SF-539 = test system: SF-539
OVCAR-8 = test system: OVCAR-8
DLD-1 = test system: DLD-1
SN12C = test system: SN12C
OVCAR-4 = test system: OVCAR-4
NCI-H23 = test system: NCI-H23
MOLT-4 = test system: MOLT-4
A549 = test system: A549
HCT-15 = test system: HCT-15
SK-MEL-5 = test system: SK-MEL-5
K562 = test system: K562
SF-268 = test system: SF-268
A498 = test system: A498
HT-29 = test system: HT-29
EKVX = test system: EKVX
NCI-H460 = test system: NCI-H460
LXFL 529 = test system: LXFL 529

Row | Compound | GI50 (HOP-62) | GI50 (HL-60) | GI50 (CCRF-CEM) | GI50 (SF-539) | GI50 (OVCAR-8) | GI50 (DLD-1) | GI50 (SN12C) | GI50 (OVCAR-4) | GI50 (NCI-H23) | GI50 (MOLT-4) | GI50 (A549) | GI50 (HCT-15) [µM] | GI50 (SK-MEL-5) | GI50 (K562) | GI50 (SF-268) | GI50 (A498) | GI50 (HT-29) | GI50 (EKVX) | GI50 (NCI-H460) | GI50 (LXFL 529)
1 | O=C1ON(Cc2ccccc2)C(c2ccccc2)N1c1ccccc1 (stereo not given) | > 100 µM (inactive) | > 70.5 µM (inactive) | > 100 µM (inactive) | > 100 µM (inactive) | > 100 µM (inactive) | > 100 µM (inactive) | > 100 µM (inactive) | > 100 µM (inactive) | > 100 µM (inactive) | 71.6 µM (inactive) | > 100 µM (inactive) | > 100 | > 100 µM (inactive) | > 95.9 µM (inactive) | > 100 µM (inactive) | > 100 µM (inactive) | > 100 µM (inactive) | > 100 µM (inactive) | > 100 µM (inactive) | –
2 | O=NN1C(c2ccccc2)CCCC1c1ccccc1 (stereo not given) | > 100 µM (inactive) | 26.8 µM (inactive) | 52.1 µM (inactive) | > 100 µM (inactive) | > 43.8 µM (inactive) | > 90.6 µM (inactive) | > 100 µM (inactive) | 35.9 µM (inactive) | 42 µM (inactive) | 27.9 µM (inactive) | > 71 µM (inactive) | 62.4 | 49.4 µM (inactive) | 35.9 µM (inactive) | > 100 µM (inactive) | 15.1 µM (inactive) | 22.9 µM (inactive) | > 62.2 µM (inactive) | 43.9 µM (inactive) | –
3 | CC(=O)OCC1OC(OCCCCCCO)C(OC(C)=O)C(OC(C)=O)C1OC(C)=O (stereo not given) | > 100 µM (inactive) | > 100 µM (inactive) | > 100 µM (inactive) | > 100 µM (inactive) | > 100 µM (inactive) | – | > 100 µM (inactive) | > 100 µM (inactive) | > 100 µM (inactive) | > 100 µM (inactive) | > 100 µM (inactive) | > 100 | – | > 100 µM (inactive) | > 100 µM (inactive) | > 100 µM (inactive) | > 100 µM (inactive) | > 100 µM (inactive) | > 100 µM (inactive) | –
4 | O=C1C(Cl)N(c2cccc(Cl)c2)C1c1c[nH]c2ccccc12 (stereo not given) | > 100 µM (inactive) | > 100 µM (inactive) | > 100 µM (inactive) | > 100 µM (inactive) | > 100 µM (inactive) | – | > 100 µM (inactive) | > 100 µM (inactive) | > 100 µM (inactive) | > 100 µM (inactive) | > 100 µM (inactive) | – | > 100 µM (inactive) | > 100 µM (inactive) | > 100 µM (inactive) | – | > 100 µM (inactive) | > 100 µM (inactive) | > 100 µM (inactive) | > 100 µM (inactive)
5 | O=C(CC(C(=O)c1cccs1)c1ccc2c(c1)OCO2)c1ccc(Br)cc1 (stereo not given) | > 100 µM (inactive) | > 100 µM (inactive) | > 100 µM (inactive) | – | > 100 µM (inactive) | – | > 100 µM (inactive) | > 100 µM (inactive) | > 100 µM (inactive) | > 100 µM (inactive) | > 100 µM (inactive) | > 100 | > 100 µM (inactive) | > 100 µM (inactive) | > 100 µM (inactive) | > 100 µM (inactive) | – | > 100 µM (inactive) | > 100 µM (inactive) | –
6 | CC1(c2ccccc2)N=c2[nH]cnc2=C(C(N)=O)N1 (stereo not given) | > 100 µM (inactive) | > 100 µM (inactive) | > 100 µM (inactive) | > 100 µM (inactive) | > 100 µM (inactive) | – | > 100 µM (inactive) | > 100 µM (inactive) | > 100 µM (inactive) | – | > 100 µM (inactive) | > 100 | > 100 µM (inactive) | > 100 µM (inactive) | > 100 µM (inactive) | > 100 µM (inactive) | > 100 µM (inactive) | > 100 µM (inactive) | > 100 µM (inactive) | –
7 | C=C(C)CCN[Si](c1ccccc1)(c1ccccc1)C(C)(C)C | 17.1 µM (inactive) | 20.1 µM (inactive) | 25.8 µM (inactive) | 15.6 µM (inactive) | 19.6 µM (inactive) | – | 18.2 µM (inactive) | 19 µM (inactive) | 19.4 µM (inactive) | 18.7 µM (inactive) | 24.1 µM (inactive) | 21.9 | 19 µM (inactive) | 24.1 µM (inactive) | 30.5 µM (inactive) | 28.9 µM (inactive) | 16.6 µM (inactive) | 22.1 µM (inactive) | 29 µM (inactive) | –
8 | COc1ccc(-c2cc(-c3cc(OC)c(OC)c(OC)c3)cc(-c3cc4ccccc4oc3=O)n2)cc1 | 2.25 µM (inactive) | > 100 µM (inactive) | > 100 µM (inactive) | 2.76 µM (inactive) | 4.38 µM (inactive) | – | 8.93 µM (inactive) | 3.94 µM (inactive) | 7.87 µM (inactive) | > 100 µM (inactive) | 15 µM (inactive) | 30.9 | 5.97 µM (inactive) | 30.1 µM (inactive) | 3.45 µM (inactive) | 5.65 µM (inactive) | 9.4 µM (inactive) | 10.9 µM (inactive) | 5.78 µM (inactive) | –
9 | Clc1cc2c(c(CSC3=NCN(CC4CC4)CN3)c1)OCOC2 | 21.9 µM (inactive) | 13.6 µM (inactive) | 5.35 µM (inactive) | 20.3 µM (inactive) | 26.9 µM (inactive) | – | 28.6 µM (inactive) | 34.3 µM (inactive) | 17.1 µM (inactive) | 22.5 µM (inactive) | 22.8 µM (inactive) | 21.5 | 17.7 µM (inactive) | 28.1 µM (inactive) | 27.3 µM (inactive) | 20.7 µM (inactive) | 20.3 µM (inactive) | 20 µM (inactive) | 17.8 µM (inactive) | –
10 | COC(=O)c1ccc(/N=N/N(C)COc2ccc([N+](=O)[O-])cc2)cc1 | > 100 µM (inactive) | 21.8 µM (inactive) | 58.2 µM (inactive) | 88.7 µM (inactive) | > 100 µM (inactive) | > 100 µM (inactive) | > 100 µM (inactive) | > 100 µM (inactive) | > 100 µM (inactive) | > 100 µM (inactive) | > 100 µM (inactive) | > 90.8 | > 96.8 µM (inactive) | 50.7 µM (inactive) | > 78.2 µM (inactive) | > 87.5 µM (inactive) | > 94 µM (inactive) | > 100 µM (inactive) | 15.5 µM (inactive) | –
11 | N#CC1(C#N)C(=O)c2ccncc2C1=O | – | > 100 µM (inactive) | > 100 µM (inactive) | > 100 µM (inactive) | > 100 µM (inactive) | – | > 100 µM (inactive) | > 100 µM (inactive) | > 100 µM (inactive) | – | > 100 µM (inactive) | > 100 | > 100 µM (inactive) | > 100 µM (inactive) | > 100 µM (inactive) | > 100 µM (inactive) | > 100 µM (inactive) | > 100 µM (inactive) | > 100 µM (inactive) | –
12 | CCOC(=O)CC(=O)CSc1c(-c2ccccc2)c(=O)n(-c2ccccc2)c(=S)n1-c1ccccc1 | > 100 µM (inactive) | > 100 µM (inactive) | 51.4 µM (inactive) | > 100 µM (inactive) | > 100 µM (inactive) | – | > 100 µM (inactive) | > 100 µM (inactive) | > 100 µM (inactive) | 38.9 µM (inactive) | > 100 µM (inactive) | > 100 | – | > 100 µM (inactive) | > 100 µM (inactive) | > 100 µM (inactive) | > 100 µM (inactive) | > 100 µM (inactive) | > 100 µM (inactive) | –
13 | CC(=O)O[C@]12CCCCCC1C1(O)C(O)CCCC[C@H]12 (stereo not given in full) | > 100 µM (inactive) | > 100 µM (inactive) | > 100 µM (inactive) | – | > 100 µM (inactive) | – | > 100 µM (inactive) | > 100 µM (inactive) | > 100 µM (inactive) | > 100 µM (inactive) | > 100 µM (inactive) | > 100 | > 100 µM (inactive) | > 100 µM (inactive) | > 100 µM (inactive) | – | > 100 µM (inactive) | > 100 µM (inactive) | > 100 µM (inactive) | > 100 µM (inactive)
14 | O=S(=O)(O)c1ccc(/N=N\c2ccc(/N=N/c3ccc(/C=C/c4ccc(/N=[N+](\[O-])c5ccc(/C=C/c6ccc(/N=N/c7ccc(/N=N/c8ccc(S(=O)(=O)O)cc8)c8ccccc78)cc6S(=O)(=O)O)c(S(=O)(=O)O)c5)cc4S(=O)(=O)O)c(S(=O)(=O)O)c3)c3ccccc23)cc1 | > 100 µM (inactive) | > 100 µM (inactive) | > 100 µM (inactive) | > 84.7 µM (inactive) | > 100 µM (inactive) | > 100 µM (inactive) | > 100 µM (inactive) | > 100 µM (inactive) | > 100 µM (inactive) | > 100 µM (inactive) | > 89.1 µM (inactive) | > 100 | > 100 µM (inactive) | > 100 µM (inactive) | > 100 µM (inactive) | > 100 µM (inactive) | > 100 µM (inactive) | > 100 µM (inactive) | > 100 µM (inactive) | –
15 | CC(=O)O[C@@]12CO[C@@H]1CC(O)[C@@]1(C)C(=O)[C@H](O)C3=C(C)C(O)C[C@@](O)(C(OC(=O)c4ccccc4)C12)C3(C)C (stereo not given in full) | 6.05 µM (inactive) | 0.41 µM (active) | 0.454 µM (active) | 0.415 µM (active) | 3.13 µM (inactive) | – | 2.18 µM (inactive) | > 90.8 µM (inactive) | 0.869 µM (active) | 0.759 µM (active) | 3.81 µM (inactive) | 24.7 | 6.58 µM (inactive) | 0.619 µM (active) | 3.97 µM (inactive) | 5.82 µM (inactive) | 0.385 µM (active) | 5.62 µM (inactive) | 1.02 µM (active) | –
